# Measurements as given in patent US20250177363A1, “SUBSTITUTED IMIDAZOPYRIDINYL COMPOUNDS USEFUL AS INHIBITORS OF TLR9” (Bristol-Myers Squibb Company, priority 2022, published 2025).
# Experiments:
# Format in all cases: cell-based
# human TLR7 = target: T1, human TLR7 (Homo sapiens, UniProt Q9NYK1); assay: TLR7 inhibition reporter assay (HEK-Blue, SEAP); conditions: HEK-Blue cells overexpressing human TLR7, ligand gardiquimod 2.5 μM, 22 hour incubation
# T1 construct: host or cells: HEK-Blue cells
# T1 sequence (Q9NYK1 27-1049): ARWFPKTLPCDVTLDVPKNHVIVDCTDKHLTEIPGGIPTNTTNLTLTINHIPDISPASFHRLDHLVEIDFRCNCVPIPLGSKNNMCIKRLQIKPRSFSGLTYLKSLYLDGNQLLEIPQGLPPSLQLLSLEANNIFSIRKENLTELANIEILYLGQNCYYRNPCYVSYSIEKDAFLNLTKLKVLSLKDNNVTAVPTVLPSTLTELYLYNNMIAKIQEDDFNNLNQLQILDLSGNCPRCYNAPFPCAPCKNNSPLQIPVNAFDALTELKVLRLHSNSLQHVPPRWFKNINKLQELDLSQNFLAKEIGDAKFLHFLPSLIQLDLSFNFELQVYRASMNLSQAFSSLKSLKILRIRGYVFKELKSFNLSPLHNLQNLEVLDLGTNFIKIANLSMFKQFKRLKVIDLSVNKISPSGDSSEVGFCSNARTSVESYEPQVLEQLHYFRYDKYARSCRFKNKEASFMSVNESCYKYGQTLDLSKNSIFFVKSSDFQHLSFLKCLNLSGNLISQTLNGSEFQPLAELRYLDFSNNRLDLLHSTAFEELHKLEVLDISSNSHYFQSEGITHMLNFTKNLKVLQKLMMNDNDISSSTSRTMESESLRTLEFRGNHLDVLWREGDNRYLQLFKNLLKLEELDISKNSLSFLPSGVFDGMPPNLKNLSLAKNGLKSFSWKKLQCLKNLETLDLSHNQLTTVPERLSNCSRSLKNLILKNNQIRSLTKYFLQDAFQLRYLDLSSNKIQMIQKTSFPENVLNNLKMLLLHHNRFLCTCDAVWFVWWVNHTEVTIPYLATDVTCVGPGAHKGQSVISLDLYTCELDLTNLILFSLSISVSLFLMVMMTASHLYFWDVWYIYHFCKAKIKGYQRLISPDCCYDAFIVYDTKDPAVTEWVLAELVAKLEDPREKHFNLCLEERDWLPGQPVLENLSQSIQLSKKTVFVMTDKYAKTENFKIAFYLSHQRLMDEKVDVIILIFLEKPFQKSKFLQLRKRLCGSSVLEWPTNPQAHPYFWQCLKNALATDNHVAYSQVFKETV
# Method in brief: (§1)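 HEK-Blue cells expressing human TLR7, TLR8 or TLR9 with NF-κB/AP-1-driven SEAP reporter; compounds 0.85 nM–50 μM, pre-treated 60 min. Stimulation: gardiquimod 2.5 μM (TLR7), R848 14.25 μM (TLR8), ODN2006 200 nM (TLR9); SEAP read after 22 h at 37 °C. Percent inhibition normalized between agonist+DMSO and known-inhibitor wells.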
# human TLR8 = target: T2, human TLR8 (Homo sapiens, UniProt Q9NR97); assay: TLR8 inhibition reporter assay (HEK-Blue, SEAP); conditions: HEK-Blue cells overexpressing human TLR8, ligand R848 14.25 μM, 22 hour incubation
# T2 construct: host or cells: HEK-Blue cells
# T2 sequence (Q9NR97 27-1041): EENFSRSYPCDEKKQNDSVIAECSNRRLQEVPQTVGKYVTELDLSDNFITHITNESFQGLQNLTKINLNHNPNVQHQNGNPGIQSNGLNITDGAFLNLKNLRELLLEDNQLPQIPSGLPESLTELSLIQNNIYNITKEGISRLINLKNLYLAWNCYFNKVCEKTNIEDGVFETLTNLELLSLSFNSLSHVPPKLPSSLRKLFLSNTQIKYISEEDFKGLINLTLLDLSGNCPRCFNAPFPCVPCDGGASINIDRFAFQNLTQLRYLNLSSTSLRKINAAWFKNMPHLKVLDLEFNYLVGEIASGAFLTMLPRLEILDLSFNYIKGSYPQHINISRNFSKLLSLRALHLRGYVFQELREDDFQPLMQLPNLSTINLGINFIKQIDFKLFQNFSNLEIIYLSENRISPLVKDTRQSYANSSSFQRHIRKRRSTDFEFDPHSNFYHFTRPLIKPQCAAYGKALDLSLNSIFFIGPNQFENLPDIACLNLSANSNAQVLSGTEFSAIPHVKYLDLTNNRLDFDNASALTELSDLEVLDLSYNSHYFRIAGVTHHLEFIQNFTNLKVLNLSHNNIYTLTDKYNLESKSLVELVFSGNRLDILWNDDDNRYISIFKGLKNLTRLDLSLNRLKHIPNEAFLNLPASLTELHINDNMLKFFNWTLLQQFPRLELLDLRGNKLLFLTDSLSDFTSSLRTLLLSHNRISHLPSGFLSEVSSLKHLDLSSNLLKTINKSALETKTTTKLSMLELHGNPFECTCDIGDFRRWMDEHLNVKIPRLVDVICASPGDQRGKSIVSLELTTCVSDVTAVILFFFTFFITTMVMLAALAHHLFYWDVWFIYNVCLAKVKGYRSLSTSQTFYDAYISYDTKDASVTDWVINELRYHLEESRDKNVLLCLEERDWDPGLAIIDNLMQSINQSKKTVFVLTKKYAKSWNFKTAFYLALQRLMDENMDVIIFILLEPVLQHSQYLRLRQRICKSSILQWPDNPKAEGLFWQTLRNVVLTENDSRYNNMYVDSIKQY
# Method in brief: as §1
# human TLR9 = target: T3, human TLR9 (Homo sapiens, UniProt Q9NR96); assay: TLR9 inhibition reporter assay (HEK-Blue, SEAP); conditions: HEK-Blue cells overexpressing human TLR9, ligand ODN2006 200 nM, 22 hour incubation
# T3 construct: host or cells: HEK-Blue cells
# T3 sequence (Q9NR96 26-1032): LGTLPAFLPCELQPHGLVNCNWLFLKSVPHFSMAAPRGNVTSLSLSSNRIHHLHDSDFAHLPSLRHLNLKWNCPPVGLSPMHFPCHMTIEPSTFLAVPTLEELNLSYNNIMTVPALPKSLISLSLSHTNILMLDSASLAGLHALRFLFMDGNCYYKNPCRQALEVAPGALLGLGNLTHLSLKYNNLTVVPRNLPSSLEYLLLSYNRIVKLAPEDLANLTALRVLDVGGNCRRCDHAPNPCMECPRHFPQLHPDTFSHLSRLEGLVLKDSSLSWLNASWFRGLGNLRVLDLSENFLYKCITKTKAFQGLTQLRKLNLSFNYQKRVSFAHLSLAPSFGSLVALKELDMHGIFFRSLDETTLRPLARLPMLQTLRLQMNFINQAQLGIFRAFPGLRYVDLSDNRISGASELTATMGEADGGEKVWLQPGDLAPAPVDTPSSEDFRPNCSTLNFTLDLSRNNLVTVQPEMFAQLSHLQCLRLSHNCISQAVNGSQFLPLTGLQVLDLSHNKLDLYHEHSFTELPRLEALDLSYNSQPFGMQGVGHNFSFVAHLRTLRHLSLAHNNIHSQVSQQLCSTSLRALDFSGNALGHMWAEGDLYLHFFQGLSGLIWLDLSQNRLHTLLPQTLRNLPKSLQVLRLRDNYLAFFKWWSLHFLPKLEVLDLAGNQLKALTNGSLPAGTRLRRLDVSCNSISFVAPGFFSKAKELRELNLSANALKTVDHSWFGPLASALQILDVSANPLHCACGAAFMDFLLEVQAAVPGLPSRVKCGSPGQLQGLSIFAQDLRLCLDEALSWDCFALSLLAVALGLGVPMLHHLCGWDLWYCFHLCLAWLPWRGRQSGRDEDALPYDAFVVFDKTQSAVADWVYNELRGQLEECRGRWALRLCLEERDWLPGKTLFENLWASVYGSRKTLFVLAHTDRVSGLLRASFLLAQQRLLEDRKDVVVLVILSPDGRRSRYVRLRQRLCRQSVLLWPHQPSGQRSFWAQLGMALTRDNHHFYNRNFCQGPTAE
# Method in brief: as §1
IC50 (human TLR7) [nM],IC50 (human TLR8) [nM],IC50 (human TLR9) [nM],Structure (SMILES)
> 50000,> 50000,3200,"CS(=O)(=O)c1ccc(-c2nc3ccc(-c4ccc(N5CCN(CCN6CCOCC6)CC5)cc4)nc3n2C2CC2)cc1 [Example 57, 4-(2-(4-(4-(3-cyclopropyl-2-(4-(methylsulfonyl)phenyl)-3H-imidazo[4,5-b]pyridin-5-yl)phenyl)piperazin-1-yl)ethyl)morpholine]"
1300,> 50000,220,"COc1ccc(-c2nc3c(C)cc(C4CCN([C@H]5C[C@@H]6CN(C7CCOCC7)C[C@@H]6C5)CC4)nc3n2C)cc1OC [Example 40, 2-(3,4-dimethoxyphenyl)-3,7-dimethyl-5-(1-(2-(tetrahydro-2H-pyran-4-yl)octahydrocyclopenta[c]pyrrol-5-yl)piperidin-4-yl)-3H-imidazo[4,5-b]pyridine]"
740,> 50000,80,"COc1ccc(-c2nc3c(C)cc(C4CCN([C@H]5C[C@@H]6CN(CC7CC7)C[C@@H]6C5)CC4)nc3n2C)cc1OC [Example 38, 5-(1-(2-(cyclopropylmethyl)octahydrocyclopenta[c]pyrol-5-yl)piperidin-4-yl)-2-(3,4-dimethoxyphenyl)-3,7-dimethyl-3H-imidazo[4,5-b]pyridine]"
1200,> 50000,100,"COc1ccc(-c2nc3c(C)cc(C4CCN([C@H]5C[C@@H]6CN(CC(C)C)C[C@@H]6C5)CC4)nc3n2C)cc1OC [Example 37, 2-(3,4-dimethoxyphenyl)-5-(1-(2-isobutyloctahydrocyclopenta[c]pyrrol-5-yl)piperidin-4-yl)-3,7-dimethyl-3H-imidazo[4,5-b]pyridine]"

# Further lines, the compound ahead of its results:
Structure (SMILES),IC50 (human TLR7) [nM],IC50 (human TLR8) [nM],IC50 (human TLR9) [nM]
"Cc1cc(-c2ccc(CN3CC4(C3)CN(C3CCOCC3)C4)cc2)nc2c1nc(-c1ccc(S(C)(=O)=O)cc1)n2C1CC1 [Example 5, 3-cyclopropyl-7-methyl-2-(4-(methylsulfonyl)phenyl)-5-(4-((6-(tetrahydro-2H-pyran-4-yl)-2,6-diazaspiro[3.3]heptan-2-yl)methyl)phenyl)-3H-imidazo[4,5-b]pyridine]",200,260,320
"CC(C)CN1CCC(N2CCC(c3ccc4nc(-c5ccc(S(C)(=O)=O)cc5)n(C)c4n3)CC2)CC1 [Example 18, 5-(1′-isobutyl-[1,4′-bipiperidin]-4-yl)-3-methyl-2-(4-(methylsulfonyl)phenyl)-3H-imidazo[4,5-b]pyridine]",2800,> 25000,780
"Cc1cc(C2CCN(C3CCN(C(C)C)CC3)CC2)nc2c1nc(-c1ccc(S(C)(=O)=O)cc1)n2C [Example 20, 5-(1′-isopropyl-[1,4′-bipiperidin]-4-yl)-3,7-dimethyl-2-(4-(methylsulfonyl)phenyl)-3H-imidazo[4,5-b]pyridine]",1400,> 50000,25
"Cn1c(-c2ccc(S(C)(=O)=O)cc2)nc2ncc(C3CCN(C4CCN(C5CC5)CC4)CC3)cc21 [Example 16, 6-(1′-cyclopropyl-[1,4′-bipiperidin]-4-yl)-1-methyl-2-(4-(methylsulfonyl)phenyl)-1H-imidazo[4,5-b]pyridine]",> 25000,> 25000,1400
"CC(C)N1CCC(N2CCC(c3ccc4nc(-c5ccc(S(C)(=O)=O)cc5)n(C)c4n3)CC2)CC1 [Example 17, 5-(1′-isopropyl-[1,4′-bipiperidin]-4-yl)-3-methyl-2-(4-(methylsulfonyl)phenyl)-3H-imidazo[4,5-b]pyridine]",18000,> 50000,71
